Measurements: US6248309A, “Gums containing antimicrobial agents” (priority 1999, dated 2001)
Several values for one entry are separate records, joined by “and”; a condition that tells them apart may be missing. Identical values can stand only once. Counter-ions that a name gives are not always drawn. Like-named read-outs stand apart in the source and are kept apart here.

Columns and labels:
[1] = tested on: Actinomyces viscosus (AV); assay: MIC of agents alone, in pairs and in three-agent combination (Example 2); type: cell-based, Actinomyces viscosus ATCC 19246; conditions: agent used alone
Text: (§1) In addition, the example describes how the MIC of antimicrobial agents in the combinations are reduced compared to the MIC of those antimicrobial agents alone and the MIC of those agents in various pairings. Numerous combinations of the antimicrobial agents described herein were combined to form combinations comprising three antimicrobial agents or triplets. Each of the formed triplets included either cedarwood oil or berberine hydrochloride.
(§2) The protocol used was a variation of the procedure described above in Example 1. The assay was carried out in the two-dimensional array of a 96-well plate. In order to evaluate three agents, two of the agents were paired against the third agent. For example, varying concentrations of antimicrobial agent A plus antimicrobial agent B versus varying concentrations of antimicrobial agent C were evaluated on one 96-well plate. The procedure was repeated with the other two possible pairings, i.e., A+C with B, and B+C with A. Accordingly, each triplet required three assays in order to assess each of the three possible pairings.
(§3) The bacterial innoculum was prepared as described in Example 1.
(§4) A sterile polystyrene 96-well plate was used to dilute the antimicrobial agents A, B and C. Using aseptic technique, 100 microliters of distilled water was placed in each test well. The dilution scheme was separated into two parts. First, the dilution of the combined agents A and B and then second, the dilution of agent C. A dilution of agents A and B was accomplished by placing 50 microliters of stock solution for agent A in the first well of each column. Next, 50 microliters of stock solution for agent B was added to each of the first wells of each column. Accordingly, the first well of each column included 50 microliters of stock solution for agent A and 50 microliters of stock solution for agent B. 100 microliters from the first row in each column was then transferred to the next well in the column and so on down the column. Each transfer was a one-half dilution of the preceding concentration.
(§5) The dilution of antimicrobial agent C was accomplished by adding 100 microliters of agent C stock solution to the first well of each row. 100 microliters from the first well in each row was then transferred to the next well and so on across the row of test wells. Each transfer was a one-half dilution of the preceding concentration. FIG. 1 is a schematic illustration of the concentrations of antimicrobial agents A, B and C derived from the dilution scheme described above. […] The concentration of agent C decreases across a row from left to right. […]
(§6) The 96-well plate was then incubated under conditions that varied by microorganism. […] The plate was then read for microbial growth with a spectrophotometer by optical density. […]

[2] = tested on: Fusobacterium nucleatum (FN); assay: as above; type: cell-based, Fusobacterium nucleatum ATCC 10933
Text: as §1, §2, §3, §4, §5, §6

[3] = tested on: Porphyromonas gingivalis (PG); assay: as above; type: cell-based, Porphyromonas gingivalis ATCC 33277
Text: as §1, §2, §3, §4, §5, §6

[4] = tested on: Streptococcus mutans (SM); assay: as above; type: cell-based, Streptococcus mutans ATCC 25175; conditions: agent used alone
Text: as §1, §2, §3, §4, §5, §6

[5] = tested on: Streptococcus sanguis (SS); assay: as above; type: cell-based, Streptococcus sanguis ATCC 49295; conditions: agent used alone
Text: as §1, §2, §3
A sterile polystyrene 96-well plate was used to dilute the antimicrobial agents A, B and C. Using aseptic technique, 100 microliters of distilled water was placed in each test well. The dilution scheme was separated into two parts. First, the dilution of the combined agents A and B and then second, the dilution of agent C. A dilution of agents A and B was accomplished by placing 50 microliters of stock solution for agent A in the first well of each column. Next, 50 microliters of stock solution for agent B was added to each of the first wells of each column. […]
as §6

[6] = tested on: Campylobacter rectus (CR); assay: as above; type: cell-based; conditions: read-out: MIC, individual agent alone
Text: as §1, §2, §3
A sterile polystyrene 96-well plate was used to dilute the antimicrobial agents A, B and C. […]
as §6

[7] = type: in vivo, human volunteers
Description: The saliva samples were refrigerated until analysis.
To either 2.7 grams unchewed gum sample or the remaining bolus of chewed gum, was added 3.0 millileters of internal standard (Hesperetin) in methanol, 6.0 milliliters hexane and 3.0 milliliters distilled water. Samples were homogenized using a Polytron Homogenizer model PT10/35 from Brinkmann Instruments, fitted with a PTA10TS generator for at least 30 seconds on ice, or until no lumps of non-dispersed gum were visible in the sample. Samples were then centrifuged in a Dynac Tabletop Centrifuge at top speed for ten minutes. The lower, amber, aqueous/methanol layer were then filtered through 25 millimeter, 0.45 micrometer nylon Acrodisc syringe filters from Gelman into 4 milliliter autosampler vials and tightly capped with polytetrafluorothylene lined septum in open-top screw caps. These samples were then analyzed using high pressure liquid chromatography for glabridin and/or glycyrrhizic and 18β-glycyrrhetinic acid, and were quantitated against a 4-point linear curve prepared by spiking approximately 2.7 grams unchewed samples of Wrigley Extra Sugarfree Peppermint gum with known levels of purified glabridin, glycyrrhizic acid monoammonium salt and 18β-glycyrrhetinicacid.
For the analysis of the gum bolus, both chewed and unchewed, a Polytron Homogenizer, described above was used. The gum sample was placed in a heavy wall glass tube. Internal standard ([…]) ethyl acetate ([…]) and water ([…]) were added. The sample was homogenized for approximately 30 seconds, or until no particles could be seen. The tubes were then centrifuged for 10 minutes on a clinical centrifuge at maximum speed. The supernatant was injected directly onto the gas chromatograph. The oven program was modified to allow resolution of ROF1 components from those of the peppermint flavoring. The gas chromatograph was calibrated using a three point standard curve to quantify the following components: menthol (flavor); geraniol (oil geraniol); cedrene, thujopsene (RC1); pinene, cineol, camphor, bornyl acetate (ROF1). The initial temperature was decreased from 140° C. to 100° C. The temperature gradient was changed from 10° C./minute to 4° C./minute. The split ratio was 50:1, and injection volume was 1 μL as per the method. A cleanup gradient was run every fifth sample as described previously.
A recovery study was performed in triplicate using blank Wrigley's Peppermint Gum (chewed and unchewed) spiked with stand and solution. Recovery was calculated relative to a direct standard consisting of spike solution without sample matrix.

[8] = for Above MIC in Saliva (Y/N): concentration in saliva at any time above MIC relative to Porphyromonas gingivalis
Description: (§11) Ten volunteers chewed 2.7 grams samples of each gum formulation and provided saliva samples at intervals and the gum bolus at the end of the 25 minute chewing period. High pressure liquid chromatography and gas chromatography were used to analyze the gum bolus and saliva non-volatile and volatile components, respectively.
(§12) Saliva samples were collected from each of the individuals prior to chewing 2.7 grams of gum, and at 1.0, 2.5, 5.0, 10.0, and 25.0 minutes while chewing the gum. The saliva samples were refrigerated until analysis. The gum bolus that remained after 25 minutes was saved and extracted immediately or stored refrigerated until extraction for analysis.
(§13) Samples were Vortex-mixed in Multi-tube vortex mixer for one minute and then centrifuged at top speed in clinical centrifuge for two minutes. Supernatants were carefully transferred to 1 milliliter glass shell vials and capped. Analysis was carried out either by isocratic elution for glabridin-only samples, or gradient elution for the samples containing the glycyrrhizic and 18β-glycyrrhetinic acids using high pressure liquid chromatography. Glabridin concentrations were converted to GLY concentrations by taking the weight percent glabridin in GLY to be 2.74 percent.
(§14) The calibration curve was prepared using spiked blank saliva.
(§15) For saliva, the essential oils of menthol, cedarwood oil, geraniol and Rosmarinus officianalis were determined by capillary gas chromatography. The split ratio was 25:1. The injection volume was 2 μL. Four hundred μL of saliva was extracted from the 1 milliliter of ethyl acetate containing an internal standard (hexadecane) in 1.5 milliliter Eppendorf tubes. After centrifugation, the organic layer was injected directly into the Hewlett-Packard 6890 gas chromatograph. […] For this reason, only the samples from 0 to 10 minutes were analyzed. A cleanup gradient was run from 190 to 300° C. every fifth sample to remove less volatile interferences from the column.

clinical = conditions: human, in vivo
Description: as §11, §12, §13, §14, §15

Porphyromonas gingivalis = assay: MIC of each agent used in Example 5; type: cell-based; conditions: read-out: MIC relative to Porphyromonas gingivalis used in Example 5
Description: The MIC Range was determined against a standard panel of five organisms that included Actinomyces viscosus, Fusobacterium nucleatum, Porphyromonas gingivalis, Streptococcus mutans, and Stretococcus sanguis. The starting dilution was 0.1 percent in methanol. The MIC used in this Example 5 was the MIC for each agent relative to Porphyromonas gingivalis.

[9] = tested on: Actinomyces viscosus (AV); assay: MIC of agents alone and in two-agent combination (Example 1); type: cell-based, Actinomyces viscosus ATCC 19246; conditions: concentration of TB1 (agent A)
Description: (§7) The following example illustrates how the MIC of individual antimicrobial agents that are combined were determined and also illustrates how the MIC of the antimicrobial agents in combination were determined.
(§8) A microtiter plate was used to dilute the antimicrobial agents to varying concentrations in order to determine the MIC of those antimicrobial agents alone and the MIC of the agents when combined.
(§9) A bacterial culture was incubated at 37° C. Prior to the dilution of the antimicrobial agents as described below, the bacterial culture was spun down at 2,000 rpm into a pellet and resuspended in a solution of buffered phosphate. The innoculum was normalized with a spectrophotometer to an optical density at 550 nanometers of between 0.180-0.220 (equivalent to 5.0×10^7 colony forming units, CFU per milliliter). The innoculum was set aside until the completion of the antimicrobial agent dilution. […]
(§10) Following 48 hours of incubation, the incubated plate was read for microbial growth with a spectrophotometer by optical density (OD). The well containing the lowest dilution achievable for each agent with a spectrophotometer reading below 0.05 OD (i.e., no detectable microbial growth) was considered representative for the combination. The MIC for each agent in the combination was determined by accounting for the starting stock solution concentration and the resulting dilutions in the 96-well plate. […]

[10] = tested on: Fusobacterium nucleatum (FN); assay: as above; type: cell-based, Fusobacterium nucleatum ATCC 10933; conditions: concentration of TB1 (agent A)
Description: as §7, §8, §9, §10

[11] = tested on: Porphyromonas gingivalis (PG); assay: as above; type: cell-based, Porphyromonas gingivalis ATCC 33277; conditions: concentration of TB1 (agent A)
Description: as §7, §8, §9, §10

[12] = tested on: Streptococcus mutans (SM); assay: as above; type: cell-based, Streptococcus mutans ATCC 25175; conditions: concentration of TB1 (agent A)
Description: as §7, §8, §9, §10

[13] = tested on: Streptococcus sanguis (SS); assay: as above; type: cell-based, Streptococcus sanguis ATCC 49295; conditions: concentration of TB1 (agent A)
Description: as §7, §8, §9, §10

COc1ccc2cc3[n+](cc2c1OC)CCc1cc2c(cc1-3)OCO2 [BX1, 5,6-dihydro-9,10-dimethoxybenzo[g]-1,3-benzodioxolo [5,6-a] quinolizinium]
MIC, individual agent alone ([1]; AV): 62.5 µg/mL | MIC ([1]; Actinomyces viscosus, read-out: MIC, individual agent alone, AV): 31.3 µg/mL | MIC, individual agent alone ([2]; FN, agent used alone): 62.5 µg/mL | MIC ([2]; Fusobacterium nucleatum, read-out: MIC, individual agent alone): 62.5 µg/mL | MIC, individual agent alone ([3]; PG, agent used alone): 15.6 µg/mL | MIC ([3]; Porphyromonas gingivalis, read-out: MIC, individual agent alone): 15.6 µg/mL | MIC, individual agent alone ([4]; SM): 31.3 µg/mL and 62.5 µg/mL | MIC ([4]; Streptococcus mutans, read-out: MIC, individual agent alone, SM): 31.3 µg/mL | MIC, individual agent alone ([5]; SS): 62.5 µg/mL | MIC ([5]; Streptococcus, read-out: MIC, individual agent alone, SS): 31.3 µg/mL | MIC [6]: 125 µg/mL

CC1(C)[C@@H](O)CC[C@]2(C)[C@H]3C(=O)C=C4[C@@H]5C[C@@](C)(C(=O)O)CC[C@]5(C)CC[C@@]4(C)[C@]3(C)CC[C@@H]12 [GA, 18β-Glycyrrhetinic acid]
Release from Chewed Gum Bolus after 25 min ([7]; in vivo): 15% | Above MIC in Saliva (Y/N) [8]: No | concentration at 1 min (clinical): 1.8 µg/mL | concentration at 2.5 min (clinical): 1500 ng/mL | concentration at 5 min (clinical): 1600 ng/mL | concentration at 10 min (clinical): 1800 ng/mL | concentration at 25 min (clinical): 2300 ng/mL

CC1(C)[C@@H](O[C@H]2O[C@H](C(=O)O)[C@@H](O)[C@H](O)[C@H]2O[C@@H]2O[C@H](C(=O)O)[C@@H](O)[C@H](O)[C@H]2O)CC[C@]2(C)[C@H]3C(=O)C=C4[C@@H]5C[C@@](C)(C(=O)O)CC[C@]5(C)CC[C@@]4(C)[C@]3(C)CC[C@@H]12 [GR, Glycyrrhizic Acid, Monoammonium salt]
Release from Chewed Gum Bolus after 25 min ([7]; in vivo): 85% | Above MIC in Saliva (Y/N) [8]: Yes | Rate of release from gum ([8]; human, in vivo): released from a gum base less quickly and over a longer period of time | Maintenance of concentration in oral cavity above MIC ([8]; in words, released from a gum composition): maintain a concentration in the oral cavity at a level above the MIC | concentration at 1 min (clinical): 3100 µg/mL | concentration at 2.5 min (clinical): 111000 ng/mL | concentration at 5 min (clinical): 55000 ng/mL | concentration at 10 min (clinical): 30000 ng/mL | concentration at 25 min (clinical): 10000 ng/mL

CC1CCC(C(C)C)C(O)C1 (stereo not shown) [Menthol]
Release from Chewed Gum Bolus after 25 min ([7]; 2.7 g peppermint gum chewed 25 min, ten volunteers): 50% | MIC (Porphyromonas gingivalis): 125 µg/mL | Concentration of Antimicrobial Agent in Saliva ([8]; 25 minutes, GLY formulations 1,3-6, RC1 5,6, GRA 4-6, GA, GR #6, menthol 1-6): below detection limits | Above MIC in Saliva (Y/N) [8]: No | concentration at 1 min (clinical): 25 µg/mL | concentration at 2.5 min (clinical): 22000 ng/mL | concentration at 5 min (clinical): 24000 ng/mL | concentration at 10 min (clinical): 24000 ng/mL

N-cocamidopropyl-dimethylglycine [TB1]
MIC of Cocamidopropyl Dimethylglycine alone and when combined with Agent B [9]: 28.9 µg/mL | MIC of Cocamidopropyl Dimethylglycine alone and when combined with Agent B [10]: 45.4 µg/mL | MIC of Cocamidopropyl Dimethylglycine alone and when combined with Agent B [11]: 16.8 µg/mL | MIC of Cocamidopropyl Dimethylglycine alone and when combined with Agent B [12]: 22.8 µg/mL | MIC of Cocamidopropyl Dimethylglycine alone and when combined with Agent B [13]: 30.2 µg/mL
